Literature values in patent US9511078B2, “Self-nanoemulsion of poorly soluble drugs” (Kashiv Pharma, LLC, priority 2013, dated 2016).

Legend:
[1] = high-fat meal (57% fat, 825 calories)

Abiraterone AUC0-∞, fold higher with food [1]	Abiraterone Cmax, fold higher with food [1]	Log P	Structure (SMILES)
~10 fold	approximately 17 fold		CC(=O)O[C@H]1CC[C@@]2(C)C(=CC[C@@H]3[C@@H]2CC[C@]2(C)C(c4cccnc4)=CC[C@@H]32)C1 [Abiraterone acetate]
		3.5	CC(=O)[C@H]1CC[C@H]2[C@@H]3CCC4=CC(=O)CC[C@]4(C)[C@H]3CC[C@]12C [Progesterone, pregn-4-ene-3,20-dione]
